In the supplement of paper PMC13207355:

How the values were obtained:
Conditions in all cases: exposure time: 72 h
E13 [1] = patient-derived glioblastoma stem cells of classical subtype; assay: surviving fraction (nuclei count normalised to DMSO); higher = more cells surviving (less toxic)
E21 [2] = patient-derived glioblastoma stem cells of mesenchymal subtype; assay: as above
E28 [3] = patient-derived glioblastoma stem cells of classical subtype; assay: as above
E31 [4] = patient-derived glioblastoma stem cells of proneural subtype; assay: as above
E34 [5] = patient-derived glioblastoma stem cells of proneural subtype; assay: as above
E57 [6] = patient-derived glioblastoma stem cells of mesenchymal subtype; assay: as above
FT3469 [7] = normal neural stem cell line; assay: as above
E13 [8] = assay: phenotypic distance (Euclidean, principal components) from DMSO controls (arbitrary units); higher = stronger morphological change
E21 [9] = assay: as above
E28 [10] = assay: as above
E31 [11] = assay: as above
E34 [12] = assay: as above
E57 [13] = assay: as above
FT3469 [14] = assay: as above
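For phenotypic distance (Euclidean, principal components) from DMSO controls in this document: cell Painting imaging in 384-well plates, CellProfiler features reduced to at least 20 principal components, Euclidean distance versus same-plate DMSO vehicle wells (0.1% v/v), median over six images per well.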
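For surviving fraction (nuclei count normalised to DMSO) in this document: nuclei counted by high-content imaging of Hoechst-stained cells in laminin-coated 384-well plates, relative to 0.1% DMSO vehicle wells, with staurosporine as cell-death control.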

CCn1cc(C(=O)O)c(=O)c2cc(F)c(N3CCNCC3)nc21 [Enoxacin]
Conditions | phenotypic distance | surviving fraction
E13 [1], 4.1 nM | – | 0.98
E13 [1], 12.3 nM | – | 1.08
E13 [1], 37 nM | – | 0.82
E13 [1], 111.1 nM | – | 1.01
E13 [1], 333.3 nM | – | 0.975
E13 [1], 1000 nM | – | 0.96
E13 [1], 3000 nM | – | 1.05
E13 [8], 4.1 nM | 0.646 | –
E13 [8], 12.3 nM | 0.69 | –
E13 [8], 37 nM | 0.539 | –
E13 [8], 111.1 nM | 0.399 | –
E13 [8], 333.3 nM | 0.457 | –
E13 [8], 1000 nM | 0.745 | –
E13 [8], 3000 nM | 0.954 | –
E21 [2], 4.1 nM | – | 0.976
E21 [2], 12.3 nM | – | 0.98
E21 [2], 37 nM | – | 0.929
E21 [2], 111.1 nM | – | 0.973
E21 [2], 333.3 nM | – | 0.975
E21 [2], 1000 nM | – | 0.987
E21 [2], 3000 nM | – | 0.968
E21 [9], 4.1 nM | 0.648 | –
E21 [9], 12.3 nM | 0.762 | –
E21 [9], 37 nM | 0.7 | –
E21 [9], 111.1 nM | 0.554 | –
E21 [9], 333.3 nM | 0.603 | –
E21 [9], 1000 nM | 0.823 | –
E21 [9], 3000 nM | 0.597 | –
E28 [3], 4.1 nM | – | 0.921
E28 [3], 12.3 nM | – | 1.01
E28 [3], 37 nM | – | 0.969
E28 [3], 111.1 nM | – | 1.22
E28 [3], 333.3 nM | – | 0.982
E28 [3], 1000 nM | – | 0.962
E28 [3], 3000 nM | – | 0.83
E28 [10], 4.1 nM | 0.627 | –
E28 [10], 12.3 nM | 0.793 | –
E28 [10], 37 nM | 0.478 | –
E28 [10], 111.1 nM | 0.94 | –
E28 [10], 333.3 nM | 0.292 | –
E28 [10], 1000 nM | 0.666 | –
E28 [10], 3000 nM | 0.546 | –
E31 [4], 4.1 nM | – | 0.836
E31 [4], 12.3 nM | – | 1
E31 [4], 37 nM | – | 1.09
E31 [4], 111.1 nM | – | 0.95
E31 [4], 333.3 nM | – | 1.02
E31 [4], 1000 nM | – | 1.19
E31 [4], 3000 nM | – | 0.881
E31 [11], 4.1 nM | 0.556 | –
E31 [11], 12.3 nM | 0.523 | –
E31 [11], 37 nM | 0.553 | –
E31 [11], 111.1 nM | 0.528 | –
E31 [11], 333.3 nM | 0.401 | –
E31 [11], 1000 nM | 0.654 | –
E31 [11], 3000 nM | 0.714 | –
E34 [5], 4.1 nM | – | 1.01
E34 [5], 12.3 nM | – | 1.07
E34 [5], 37 nM | – | 1.09
E34 [5], 111.1 nM | – | 0.99
E34 [5], 333.3 nM | – | 1.06
E34 [5], 1000 nM | – | 1.1
E34 [5], 3000 nM | – | 0.885
E34 [12], 4.1 nM | 0.518 | –
E34 [12], 12.3 nM | 0.658 | –
E34 [12], 37 nM | 0.667 | –
E34 [12], 111.1 nM | 0.731 | –
E34 [12], 333.3 nM | 0.276 | –
E34 [12], 1000 nM | 0.843 | –
E34 [12], 3000 nM | 1.19 | –
E57 [6], 4.1 nM | – | 1
E57 [6], 12.3 nM | – | 1.07
E57 [6], 37 nM | – | 1.1
E57 [6], 111.1 nM | – | 1.11
E57 [6], 333.3 nM | – | 1.06
E57 [6], 1000 nM | – | 0.938
E57 [6], 3000 nM | – | 0.959
E57 [13], 4.1 nM | 0.422 | –
E57 [13], 12.3 nM | 0.677 | –
E57 [13], 37 nM | 0.541 | –
E57 [13], 111.1 nM | 0.821 | –
E57 [13], 333.3 nM | 0.482 | –
E57 [13], 1000 nM | 0.537 | –
E57 [13], 3000 nM | 0.807 | –
FT3469 [7], 4.1 nM | – | 0.928
FT3469 [7], 12.3 nM | – | 0.931
FT3469 [7], 37 nM | – | 0.867
FT3469 [7], 111.1 nM | – | 1.02
FT3469 [7], 333.3 nM | – | 1.06
FT3469 [7], 1000 nM | – | 0.928
FT3469 [7], 3000 nM | – | 0.971
FT3469 [14], 4.1 nM | 0.513 | –
FT3469 [14], 12.3 nM | 0.577 | –
FT3469 [14], 37 nM | 0.677 | –
FT3469 [14], 111.1 nM | 0.87 | –
FT3469 [14], 333.3 nM | 0.641 | –
FT3469 [14], 1000 nM | 0.47 | –
FT3469 [14], 3000 nM | 0.868 | –
